Test results: the supplement of paper PMC10307832

Tests used:
Assay in all cases: relative viability (nuclei count vs DMSO), 5 days (fraction); higher = more cells survive
Metformin + Alpelisib = compound: CN(C)C(=N)NC(=N)N [Metformin] + Cc1nc(NC(=O)N2CCC[C@H]2C(N)=O)sc1-c1ccnc(C(C)(C)C(F)(F)F)c1 [Alpelisib] (partner 2 µM)
Summary of the method: (§1)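 Medians of duplicate plates are given as relative viability. That measure is the nuclei count in treated wells divided by the count in vehicle wells. Counts were taken on 4× images of lung cancer cell lines in 1536-well plates, 5 days after pin-tool dosing the day after seeding with one drug alone or a fixed anchor-drug dose plus five library-drug doses (not always all listed) in √10 steps.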

Apatinib + AZD7762 = compound: N#CC1(c2ccc(NC(=O)c3cccnc3NCc3ccncc3)cc2)CCCC1 [Apatinib] + NC(=O)Nc1cc(-c2cccc(F)c2)sc1C(=O)N[C@H]1CCCNC1 [AZD7762] (partner 0.2 µM)
Summary of the method: as §1

Apatinib + Bortezomib = compound: N#CC1(c2ccc(NC(=O)c3cccnc3NCc3ccncc3)cc2)CCCC1 [Apatinib] + CC(C)C[C@H](NC(=O)[C@H](Cc1ccccc1)NC(=O)c1cnccn1)B(O)O [Bortezomib] (partner 0.002 µM)
Summary of the method: as §1

Apatinib + Palbociclib = compound: N#CC1(c2ccc(NC(=O)c3cccnc3NCc3ccncc3)cc2)CCCC1 [Apatinib] + CC(=O)c1c(C)c2cnc(Nc3ccc(N4CCNCC4)cn3)nc2n(C2CCCC2)c1=O [Palbociclib] (partner 0.5 µM)
Summary of the method: as §1

Cell Line	relative viability (Metformin + Alpelisib; first compound 10 µM)	relative viability (Metformin + Alpelisib; first compound 31.62 µM)	relative viability (Metformin + Alpelisib; first compound 100 µM)	relative viability (Metformin + Alpelisib; first compound 316.23 µM)	relative viability (Metformin + Alpelisib; first compound 1000 µM)	relative viability (Apatinib + AZD7762; first compound 0.08 µM)	relative viability (Apatinib + AZD7762; first compound 0.253 µM)	relative viability (Apatinib + AZD7762; first compound 0.8 µM)	relative viability (Apatinib + AZD7762; first compound 2.53 µM)	relative viability (Apatinib + AZD7762; first compound 8 µM)	relative viability (Apatinib + Bortezomib; first compound 0.08 µM)	relative viability (Apatinib + Bortezomib; first compound 0.253 µM)	relative viability (Apatinib + Bortezomib; first compound 0.8 µM)	relative viability (Apatinib + Bortezomib; first compound 2.53 µM)	relative viability (Apatinib + Bortezomib; first compound 8 µM)	relative viability (Apatinib + Palbociclib; first compound 0.08 µM)	relative viability (Apatinib + Palbociclib; first compound 0.253 µM)	relative viability (Apatinib + Palbociclib; first compound 0.8 µM)	relative viability (Apatinib + Palbociclib; first compound 2.53 µM)	relative viability (Apatinib + Palbociclib; first compound 8 µM)
NCI-H2085	0.956	0.955	0.944	0.903	0.985	0.97	1	0.925	0.846	0.699	1.1	0.831	1.06	1.13	1.04	0.469	0.493	0.487	0.416	0.437
HCC-44	0.782	0.825	0.931	0.711	0.813	1.03	1.01	0.983	0.96	0.947	1.01	0.951	0.894	0.753	0.856	0.999	0.987	0.894	0.839	0.8
PC-3 [JPC-3]	0.92	0.971	1.03	0.949	0.965		0.745	0.672	0.63	0.688	0.832	0.773	0.713	0.716	0.813		0.555	0.557	0.516	0.53
H3255	0.697	0.783	0.712	0.339	0.486	0.824	0.882	0.851	0.736	0.718	0.729	0.791	0.657	0.612	0.723	0.339	0.306	0.319	0.305	0.285
RERF-LC-KJ	0.702	0.746	0.788	0.619	0.735	0.844	1.02	1.04	0.779	0.759	1.03	0.99	1.04	1.05	1.05	1.11	1.1	0.467	1.05	0.984
NCI-H2347	0.771	0.968	1.09	0.961	1.01	0.716	0.791	0.823	0.654	0.556	0.847	1.06	1.13		0.891	0.469	0.407	0.452	0.384	0.392
PC-14	0.829	0.886	0.873	0.975	0.893	0.359	0.348	0.258	0.167	0.267	0.984	1.01	0.79	0.776	0.834	0.555	0.619	0.493	0.611	0.33
NCI-H838	1.04	0.969	0.969	0.988	1.02	0.979	0.957	0.941	0.885	0.865	0.931	0.963	0.57	0.887	0.712	0.229	0.261	0.206	0.215	0.217
